Results from PubChem BioAssay AID328 (DTP/NCI, 2004).
Values joined by “and” are separate entries in the source; they are usually repeats but may differ in a detail not shown here. Identical values can stand only once. Inconclusive results and toxic doses are left out.

Tested on: BDF1 mice, P388 leukemia ip, median survival T/C
Test: NCI In Vivo Anticancer Drug Screen. Data for tumor model P388 Leukemia (intraperitoneal) in B6D2F1 (BDF1) mice
Conditions: endpoint: median survival time, higher = longer survival
In short: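 Read-out is survival of treated animals expressed relative to the vehicle group, as a T/C ratio.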

[1] = dose: 50.0 mg/kg/injection, schedule: Q01DX009 (ip), vehicle: Klucel (hydroxypropylcellulose) (HPC)
[2] = dose: 100.0 mg/kg/injection, schedule: Q01DX009 (ip), vehicle: Klucel (hydroxypropylcellulose) (HPC)
[3] = dose: 100.0 mg/kg/injection, schedule: Q04DX003 (ip), vehicle: Klucel (hydroxypropylcellulose) (HPC)
[4] = dose: 200.0 mg/kg/injection, schedule: Q01DX009 (ip), vehicle: Klucel (hydroxypropylcellulose) (HPC)
[5] = dose: 200.0 mg/kg/injection, schedule: Q04DX003 (ip), vehicle: Klucel (hydroxypropylcellulose) (HPC)
[6] = dose: 400.0 mg/kg/injection, schedule: Q04DX003 (ip), vehicle: Klucel (hydroxypropylcellulose) (HPC)
[7] = dose: 6.25 mg/kg/injection, schedule: Q01DX009 (ip), vehicle: saline with Tween-80
[8] = dose: 12.5 mg/kg/injection, schedule: Q01DX009 (ip), vehicle: saline with Tween-80
[9] = dose: 50.0 mg/kg/injection, schedule: Q01DX009 (ip), vehicle: saline with Tween-80
[10] = dose: 100.0 mg/kg/injection, schedule: Q01DX009 (ip), vehicle: saline with Tween-80
[11] = dose: 200.0 mg/kg/injection, schedule: Q01DX009 (ip), vehicle: saline with Tween-80
[12] = dose: 6.25 mg/kg/injection, schedule: Q01DX009 (ip), vehicle: saline
[13] = dose: 400.0 mg/kg/injection, schedule: Q01DX009 (ip), vehicle: saline with Tween-80
[14] = dose: 25.0 mg/kg/injection, schedule: Q01DX009 (ip), vehicle: saline with Tween-80
[15] = dose: 25.0 mg/kg/injection, schedule: Q04DX003 (ip), vehicle: saline with Tween-80

For `Cc1ccc(/C(C#N)=C2C=C(Br)/C(=N\O)C=C/2Cl)cc1`, the T/C (dose: 28.12 mg/kg/injection, schedule: Q04DX003 (ip), vehicle: Klucel (hydroxypropylcellulose) (HPC)) was 100 % of control, the T/C (dose: 56.25 mg/kg/injection, schedule: Q01DX009 (ip), vehicle: Klucel (hydroxypropylcellulose) (HPC)) was 115 % of control and the T/C (dose: 56.25 mg/kg/injection, schedule: Q04DX003 (ip), vehicle: Klucel (hydroxypropylcellulose) (HPC)) was 100 % of control. For the same compound, the T/C (dose: 100.0 mg/kg/injection, schedule: Q01DX001 (ip), vehicle: Klucel (hydroxypropylcellulose) (HPC)) was 90 % of control, the T/C (dose: 112.5 mg/kg/injection, schedule: Q01DX009 (ip), vehicle: Klucel (hydroxypropylcellulose) (HPC)) was 110 % of control and the T/C (dose: 112.5 mg/kg/injection, schedule: Q04DX003 (ip), vehicle: Klucel (hydroxypropylcellulose) (HPC)) was 100 % of control. For the same compound, the T/C (dose: 150.0 mg/kg/injection, schedule: Q01DX009 (ip), vehicle: Klucel (hydroxypropylcellulose) (HPC)) was 100 % of control, the T/C (dose: 170.0 mg/kg/injection, schedule: Q04DX003 (ip), vehicle: Klucel (hydroxypropylcellulose) (HPC)) was 105 % of control and the T/C (dose: 200.0 mg/kg/injection, schedule: Q01DX001 (ip), vehicle: Klucel (hydroxypropylcellulose) (HPC)) was 104 % of control. For the same compound, the T/C (dose: 225.0 mg/kg/injection, schedule: Q01DX009 (ip), vehicle: Klucel (hydroxypropylcellulose) (HPC)) was 105 % of control, the T/C (dose: 255.0 mg/kg/injection, schedule: Q04DX003 (ip), vehicle: Klucel (hydroxypropylcellulose) (HPC)) was 110 % of control and the T/C (dose: 335.0 mg/kg/injection, schedule: Q01DX009 (ip), vehicle: Klucel (hydroxypropylcellulose) (HPC)) was 100 % of control. For the same compound, the T/C (dose: 380.0 mg/kg/injection, schedule: Q04DX003 (ip), vehicle: Klucel (hydroxypropylcellulose) (HPC)) was 100 % of control.
For `CC1CCCC/C1=N/NC(N)=O` (stereo not drawn), the T/C (dose: 12.5 mg/kg/injection, schedule: Q01DX009 (ip), vehicle: Klucel (hydroxypropylcellulose) (HPC)) was 95 % of control, the T/C (dose: 25.0 mg/kg/injection, schedule: Q01DX009 (ip), vehicle: Klucel (hydroxypropylcellulose) (HPC)) was 95 % of control and the T/C [1] was 91 % of control. For the same compound, the T/C [2] was 104 % of control, the T/C [3] was 100 % of control and the T/C [4] was 86 % of control. The T/C [5] was 95 % of control and the T/C [6] was 95 % of control.
`Cc1ccc(NS(=O)(=O)c2ccc(F)cc2)cc1C` was tested, and the T/C [3] was 109 % of control, the T/C [5] was 109 % of control and the T/C [6] was 104 % of control.
`CC12CCC(OC3OC(CO)C(O)C(O)C3O)CC1CCC1C2CCC2(C)C(C3=CC(=O)OC3)CCC12O` (stereo not drawn) was tested, and the T/C (dose: 40.0 mg/kg/injection, schedule: Q01DX009 (ip), vehicle: saline) was 86 % of control, the T/C (dose: 80.0 mg/kg/injection, schedule: Q01DX009 (ip), vehicle: saline) was 86 % of control and the T/C (dose: 160.0 mg/kg/injection, schedule: Q01DX009 (ip), vehicle: saline) was 95 % of control.
`CCCCCCCCNC(=O)C1OC(n2cnc3c(N)ncnc32)C(O)C1O` (stereo not drawn) was tested, and the T/C (dose: 25.0 mg/kg/injection, schedule: Q01DX009 (ip), vehicle: saline) was 95 % of control, the T/C (dose: 50.0 mg/kg/injection, schedule: Q01DX009 (ip), vehicle: saline) was 90 % of control and the T/C (dose: 100.0 mg/kg/injection, schedule: Q01DX009 (ip), vehicle: saline) was 95 % of control and 105 % of control. For the same compound, the T/C (dose: 100.0 mg/kg/injection, schedule: Q04DX003 (ip), vehicle: saline) was 95 % of control, the T/C (dose: 200.0 mg/kg/injection, schedule: Q01DX009 (ip), vehicle: saline) was 90 % of control and 109 % of control and the T/C (dose: 200.0 mg/kg/injection, schedule: Q04DX003 (ip), vehicle: saline) was 105 % of control. The T/C (dose: 400.0 mg/kg/injection, schedule: Q04DX003 (ip), vehicle: saline) was 90 % of control.
With `CC/C(C)=N\NC(=S)SC` the T/C (dose: 3.13 mg/kg/injection, schedule: Q01DX009 (ip), vehicle: saline with Tween-80) was 98 % of control, the T/C [7] was 102 % of control and the T/C [8] was 102 % of control.
With `COc1ccccc1NC(=O)Oc1ccc(-c2ccccc2)cc1Br` the T/C [3] was 95 % of control, the T/C [5] was 87 % of control and the T/C [6] was 91 % of control.
For `C(=N\c1ncn[nH]1)/c1ccco1`, the T/C [9] was 111 % of control, the T/C [10] was 99 % of control and the T/C [11] was 102 % of control.
With `OCCOCCOCCN1CCN(CCCN2c3ccccc3Sc3ccc(C(F)(F)F)cc32)CC1` the T/C (dose: 0.79 mg/kg/injection, schedule: Q01DX009 (ip), vehicle: saline) was 91 % of control and the T/C [12] was 112 % of control.
`CCCCCCC(=O)/C=C/c1ccccc1Cl` was tested, and the T/C [10] was 102 % of control, the T/C [11] was 118 % of control and the T/C [13] was 93 % of control.
For `O=C(O)C1C(C(=O)O)N2C(c3ccccc3)C(C(=O)O)C(C(=O)O)N2C1c1ccccc1` (stereo not drawn), the T/C [9] was 90 % of control, the T/C [10] was 90 % of control and the T/C [11] was 90 % of control.
`C[C@@H]1C[C@@H]([C@@H](CC2CC(=O)NC(=O)C2)OC(=O)CC(=O)c2ccccc2)C(=O)[C@@H](C)C1` was tested, and the T/C (dose: 11.0 mg/kg/injection, schedule: Q01DX009 (ip), vehicle: saline with Tween-80) was 120 % of control, the T/C [14] was 165 % of control and the T/C [15] was 109 % of control. For the same compound, the T/C (dose: 37.5 mg/kg/injection, schedule: Q01DX009 (ip), vehicle: saline with Tween-80) was 160 % of control, the T/C [9] was 95 % of control and the T/C (dose: 50.0 mg/kg/injection, schedule: Q04DX003 (ip), vehicle: saline with Tween-80) was 118 % of control.
With `Nc1nc(=S)c2[nH]c(N=Nc3ccc(S(=O)(=O)Nc4ncccn4)cc3)nc2[nH]1` the T/C [1] was 118 % of control, the T/C (dose: 50.0 mg/kg/injection, schedule: Q04DX003 (ip), vehicle: Klucel (hydroxypropylcellulose) (HPC)) was 108 % of control and the T/C [2] was 100 % of control. For the same compound, the T/C [3] was 108 % of control, the T/C [4] was 86 % of control and the T/C [5] was 112 % of control.
With `CC(C)c1ncc([N+](=O)[O-])n1C` the T/C [10] was 100 % of control, the T/C [11] was 87 % of control and the T/C [13] was 100 % of control.
`COC(=O)C(Cl)(Cl)N=Nc1c(Cl)cc(Cl)c(C)c1Cl` was tested, and the T/C [14] was 119 % of control, the T/C [9] was 124 % of control and the T/C [11] was 89 % of control.
In the case of `O=c1[nH]c2ccccc2nc1CBr`, the T/C [7] is reported as 118 % of control and 122 % of control, the T/C (dose: 7.5 mg/kg/injection, schedule: Q04DX003 (ip), vehicle: saline with Tween-80) is reported as 118 % of control and the T/C [8] is reported as 118 % of control. The T/C (dose: 12.5 mg/kg/injection, schedule: Q04DX003 (ip), vehicle: saline with Tween-80) was 109 % of control, the T/C (dose: 15.0 mg/kg/injection, schedule: Q04DX003 (ip), vehicle: saline with Tween-80) was 104 % of control and the T/C [15] was 113 % of control. The T/C (dose: 30.0 mg/kg/injection, schedule: Q04DX003 (ip), vehicle: saline with Tween-80) was 118 % of control and the T/C (dose: 60.0 mg/kg/injection, schedule: Q04DX003 (ip), vehicle: saline with Tween-80) was 100 % of control.
`CCN1CC2(COC)C(O)CC(OC)C34C5CC6(O)C(OC)C=C(C5C6OC(=O)c5ccc(OC)c(OC)c5)C(C(OC)C23)C14` (stereo not drawn) was tested, and the T/C (dose: 0.19 mg/kg/injection, schedule: Q01DX009 (ip), vehicle: saline with Tween-80) was 120 % of control, the T/C (dose: 0.38 mg/kg/injection, schedule: Q01DX009 (ip), vehicle: saline with Tween-80) was 94 % of control and the T/C (dose: 0.75 mg/kg/injection, schedule: Q01DX009 (ip), vehicle: saline with Tween-80) was 90 % of control.
With `COC1=C(N)C(=O)c2ncccc2C1=O` the T/C (dose: 4.0 mg/kg/injection, schedule: Q01DX010 (ip), vehicle: acetone) was 113 % of control and the T/C (dose: 8.0 mg/kg/injection, schedule: Q01DX010 (ip), vehicle: acetone) was 109 % of control.
In the case of `C=CC=O`, the T/C (dose: 0.45 mg/kg/injection, schedule: Q01DX009 (ip), vehicle: saline) is reported as 100 % of control, the T/C (dose: 0.45 mg/kg/injection, schedule: Q04DX003 (ip), vehicle: saline) is reported as 109 % of control and the T/C (dose: 0.9 mg/kg/injection, schedule: Q01DX009 (ip), vehicle: saline) is reported as 108 % of control. The T/C (dose: 0.9 mg/kg/injection, schedule: Q04DX003 (ip), vehicle: saline) was 100 % of control, the T/C (dose: 1.8 mg/kg/injection, schedule: Q01DX009 (ip), vehicle: saline) was 112 % of control and the T/C (dose: 1.8 mg/kg/injection, schedule: Q04DX003 (ip), vehicle: saline) was 109 % of control. The T/C [12] was 109 % of control, the T/C (dose: 6.25 mg/kg/injection, schedule: Q04DX003 (ip), vehicle: saline) was 104 % of control and the T/C (dose: 12.5 mg/kg/injection, schedule: Q04DX003 (ip), vehicle: saline) was 100 % of control.
`O=C(Oc1ccc(-c2ccc(Br)cc2)cc1)c1ccco1` was tested, and the T/C [9] was 90 % of control and the T/C [10] was 90 % of control.
